Measurements from US20090258053A1, “MEDICAL STENT PROVIDED WITH A COMBINATION OF MELATONIN AND PACLITAXEL” (Blue Medical Deevices BV, priority 2006, published 2009).
“And” between values parts separate entries of the source, which are not always exact repeats. Equal entries are not always repeated.

Assays:
[1] = test system: HCASMC; test: CytoTox-ONE LDH release cytotoxicity assay, HCASMC; assay type: cell-based, human; conditions: 48 hours, 0.2 to 6 mM Melatonin
Description: (§1) Cytotoxicity experiments were performed with cells cultured on 96-well plates. The CytoTox-ONE™ Assay from Promega was used to assess the membrane integrity of cells. This test is based on a fluorometric method to estimate the number of non viable cells present in multiwell plates by measuring the release of lactate dehydrogenase (LDH) from cells with damaged membranes. Subconfluent cells were incubated for 48 hours with Melatonin at concentrations between 0.2 and 6 mM. During the 48 h Melatonin incubation, the medium was not changed to avoid removal of any detached cells. As a positive control three wells of untreated cells were incubated with lysis buffer (delivered with the assay) before measurement. At the end of the Melatonin incubation period, a volume of CytoTox-ONE reagent equal to the volume of cell culture medium present in each well was added. After 10 min incubation at 22° C. (room temperature), 50 μl of stop solution was added per 100 μl of CytoTox-ONE reagent added. The plate was shaked for 10 seconds and fluorescence was recorded with an excitation wavelength of 560 nm and an emission wavelength of 590 nm (Spectramax M2 fluorescence plate reader, Molecular devices).

[2] = test system: HCAEC; test: CytoTox-ONE LDH release cytotoxicity assay, HCAEC; assay type: cell-based, human; conditions: 48 hours, 0.2 to 6 mM Melatonin
Description: as §1

[3] = test system: human coronary artery endothelial cells (HCAEC); test: CellTiter 96 One solution (MTS) cell proliferation assay, HCAEC; assay type: cell-based
Description: (§2) Human coronary artery endothelial cells (HCAEC) were purchased from Cambrex and human coronary artery smooth muscle cells (HCASMC) were purchased from Promocell. Cells were used for experiments between passage 4 and passage 12. Both cell types were cultured in their respective complete culture medium with the following composition: • HCASMC: Smooth Muscle Cell Growth Medium 2: Epidermal Growth Factor (EGF), basic Fibroblast Factor (FGF), Insulin, Fetal Calf Serum (FCS) 5%, Amphotericin B, Gentamicin. • HCAEC: Endothelial Growth Media-2 MV: hEGF, Hydrocortisone, GA-1000, FBS 5%, VEGF, hFGF-B, R3-IGF-1, Ascorbic Acid Medium was changed every other day. 24 hours prior to growth factor stimulation, the medium was replaced by fresh culture medium, however, without growth factors to increase the cellular sensitivity to the subsequent growth factor stimulation. Subconfluent HCAEC were stimulated with 10 ng/ml of VEGF-A, whereas subconfluent HCASMC were stimulated with 10 ng/ml of PDGF-BB. Likewise, both cell types were stimulated with 25% of human serum (final concentration). Melatonin (Acros organics) was kindly provided by BlueMedical Devices BV. A stock solution was prepared in DMSO, aliquoted and stored at −20° C. For each experiment a fresh aliquot was opened and diluted to the desired final concentration in cell culture medium. All proliferation and cytotoxicity experiments were performed on cells cultured on 96 well plates (Costar). The CellTiter 96 One solution cell proliferation assay from Promega was used to assess cell proliferation in a 96-well plate. This assay makes use of the MTS tetrazolium compound as a cellular substrate. MTS is bioreduced by living cells into a coloured formazan product that is soluble in tissue culture medium and absorbs light at 490 nm. The quantity of formazan produced is directly proportional to the number of living cells in culture. After 24 h stimulation, 20 μl of MTS reagent was added to the cells cultured in 100 ul of medium per well. After 2 to 4 hours of incubation at 37° C., 5% CO2, the absorbance at 490 nm was recorded using a 96-well plate reader (Tecan).

[4] = test system: human coronary artery smooth muscle cells (HCASMC); test: CellTiter 96 One solution (MTS) cell proliferation assay, HCASMC; assay type: cell-based
Description: as §2

[5] = test system: HCAEC; test: Chemotaxis towards VEGF-A, modified Boyden chamber, HCAEC; assay type: cell-based, human; conditions: 2 mM Melatonin; VEGF-A 10 ng/ml; migration 4 hours; performed only once
Description: Chemotaxis experiments were performed using a modified Boyden chamber. The apparatus consists of two multi-well chambers separated by a filter containing pores of uniform size. A solution containing a chemokine or chemotactic factor is placed in the lower/bottom chamber and a cell suspension is placed in the upper chamber. Cells can migrate through the pores across the filter and towards the chemoattractant in the lower chamber. Cells that migrated across the filter and remain attached to the lower side of the membrane are counted. Data are expressed in terms of migration index: the number of cells that migrated in response to agonist stimulation compared to the number of cells that migrated randomly, i.e. to medium only. Chemotaxis experiments so far were only performed with HCAEC. For these cells a 25×80 mm polycarbonate filter, […] (PVP) free was used (Whatman) with a pore size of […]. Before migration the filter was coated with collagen. Endothelial cells were incubated with Melatonin at 2 mM prior to and during migration. After 24 hours pre-incubation with Melatonin, untreated and Melatonin-treated cells were detached with trypsin and a cell suspension (0.5 million cells/ml) was loaded in the upper part of the chamber. […] At the end of migration, cells were fixed on the filter, stained with Giemsa and counted using a regular optic microscope.

[6] = test system: HUVEC (Human Umbilical Vein Endothelial Cells); test: [3H]-thymidine incorporation, HUVEC stimulated with VEGF-A; assay type: cell-based; conditions: VEGF A 10 ng/ml 24 hours
Description: To investigate, whether melatonin has similar effects on other cell types, HUVEC (Human Umbilical Vein Endothelial Cells, Promocell) were tested. HUVEC were cultured in the corresponding complete medium (Endothelial Cell Growth Medium: ECGS/H 0.4%, Fetal Calf Serum 2%, Epidermal Growth Factor 0.1 ng/ml, Hydrocortison 1 μg/ml, basic Fibroblast Factor 1 ng/ml, Amphotericin B 50 ng/ml, Gentamicin 50 μg/ml). 24 hours prior to stimulation, the medium was replaced by a medium containing 2% serum and antibiotics, but devoid of the other complements. Then, HUVEC were stimulated with 10 ng/ml of VEGF-A for 24 hours. HUVEC were incubated for 48 hours with Melatonin and stimulated for 24 hours with VEGF-A at 10 ng/ml. After 24 hours of stimulation, the cells were incubated with radioactive [^3H]-thymidine. Two hour later, the medium was removed and cell-bound DNA was precipitated using 5% TCA (Trichloroacetic acid). Then, [^3H]-thymidine incorporation was measured using a beta-counter.

With `COc1ccc2[nH]cc(CCNC(C)=O)c2c1` [Melatonin, N-acetyl-5-methoxytryptamine] the “cytotoxic effect (LDH release) on HCASMC” value [1] was “does not induce any detectable cytotoxic effect”, the “cytotoxic effect (LDH release) on HCAEC” value [2] was “does not induce any detectable cytotoxic effect” and the “concentrations at which proliferation of HCAEC is strongly inhibited” value [3] was “higher than 0.2 mM”. For the same compound, the “effect on HCAEC cell number” value ([3]; Melatonin between 1 mM and 6 mM) was “dramatic decrease in cell number”, the “sensitivity of HCAEC proliferation” value ([3]; Melatonin up to 0.1 mM) was “not sensitive” and the “concentration of maximal effect on HCAEC cell number” value ([3]; subconfluent cells) was 3 mM and 6 mM. For the same compound, the “concentrations at which proliferation of HCASMC is strongly inhibited” value [4] was “higher than 0.2 mM”, the “effect on number of smooth muscle cells” value ([4]; 1 mM Melatonin, 24 hours pre-treatment, PDGF BB 10 ng/ml 24 h) was “significant decrease in the number of smooth muscle cells” and the “effect on the proliferation of HCASMC” value ([4]; Melatonin up to 0.1 mM, PDGF BB 10 ng/ml 24 h) was “no significant effect”. The “concentration of maximal inhibitory effect on HCASMC” value ([4]; PDGF-BB stimulated) was 5 mM, the “inhibitory effect on HCASMC at higher concentrations” value ([4]; above 5 mM, up to 10 mM) was “no significant further increase in the inhibitory effect” and the “effect on chemotactic response of HCAEC towards VEGF-A” value [5] was “did not have any significant effect”. The “effect on HUVEC” value ([6]; 0.2 mM Melatonin, 48 hours) was “inhibitory effect” and the “VEGF-A induced [3H]-thymidine incorporation” value ([6]; Melatonin 48 hours) was “completely inhibited”.
